Some test systems named below: M14 melanoma; SK-MEL-28 melanoma; SW-620 colon; SF-539 CNS; COLO 205 colon; MDA-MB-231 breast; UACC-257 melanoma; RXF 393 renal; RPMI-8226 leukemia; LOX IMVI melanoma.
Test in all cases: NCI anticancer screen, dose series, 48 h

SMILES strings stand for the structures.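 Compound exposure: 48 hours, 5 concentrations, 96-well plates. GI50 = concentration required for 50% inhibition of growth. Definition used: TGI = concentration required for complete inhibition of growth.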

`N=C1/C(=C2\Nc3ccccc3S2)CC(=O)N1c1ccc(SC(F)F)cc1`: the GI50 was 33.2 µM in the assay on M14 melanoma; 4.38 µM in the assay on SK-MEL-28 melanoma; 5.37 µM with SW-620 colon; 4.09 µM with SF-539 CNS; 11.2 µM with COLO 205 colon; 24.6 µM in the assay on MDA-MB-231 breast. Further, the GI50 was more than 100 µM in the assay on UACC-257 melanoma, 2.81 µM in the assay with RXF 393 renal, 0.626 µM in the assay with RPMI-8226 leukemia and 2.21 µM in the assay with LOX IMVI melanoma. For the same compound, the TGI is more than 100 µM with M14 melanoma; more than 100 µM with SK-MEL-28 melanoma; more than 100 µM in the assay on SW-620 colon; 28 µM in the assay on SF-539 CNS; more than 100 µM in the assay on COLO 205 colon; more than 100 µM in the assay with MDA-MB-231 breast. In addition, the TGI in the assay with UACC-257 melanoma was more than 100 µM; with RXF 393 renal, 25.7 µM; with RPMI-8226 leukemia, 66 µM; in the assay with LOX IMVI melanoma it was more than 100 µM.
For `COc1c2ccccc2c(O)c2c(=O)ccn(C)c12`, the GI50 was 2.3 µM in the assay on M14 melanoma; 21.2 µM with SK-MEL-28 melanoma; 16.5 µM in the assay on SW-620 colon; 11.5 µM in the assay with SF-539 CNS; 7.7 µM with COLO 205 colon; 8.66 µM in the assay on MDA-MB-231 breast. Further, the GI50 in the assay on UACC-257 melanoma was 3.45 µM; with RXF 393 renal, 5.27 µM; in the assay with RPMI-8226 leukemia, 5.96 µM; in the assay on LOX IMVI melanoma, 2.02 µM. The TGI in the assay on M14 melanoma was 5.81 µM; in the assay on SK-MEL-28 melanoma, more than 80.1 µM; in the assay with SW-620 colon it was more than 100 µM; with SF-539 CNS, 89.6 µM; in the assay with COLO 205 colon, more than 100 µM; in the assay with MDA-MB-231 breast it was more than 61.4 µM. Further, the TGI in the assay with UACC-257 melanoma is 12.6 µM; in the assay with RXF 393 renal it was 20.3 µM; with RPMI-8226 leukemia, more than 100 µM; in the assay with LOX IMVI melanoma it was 11.3 µM.
In the case of `OCc1ccc(N(Cc2ccc(F)cc2)CC2CCC2)cc1Cl`, the GI50 in the assay on M14 melanoma was 15.2 µM; in the assay on SK-MEL-28 melanoma it was 14.8 µM; in the assay on SW-620 colon, 7.02 µM; in the assay with SF-539 CNS, 16.3 µM; in the assay on COLO 205 colon, 13.5 µM; with MDA-MB-231 breast, 13.5 µM. The GI50 is 1.53 µM in the assay on UACC-257 melanoma, 6.07 µM in the assay on RXF 393 renal, 9.28 µM with RPMI-8226 leukemia and 14.7 µM in the assay with LOX IMVI melanoma. The TGI in the assay with M14 melanoma was 31.2 µM; with SK-MEL-28 melanoma, 28.3 µM; with SW-620 colon, 21 µM; in the assay on SF-539 CNS, 30.4 µM; in the assay with COLO 205 colon, 26.6 µM; in the assay with MDA-MB-231 breast it was 26.8 µM. Also, the TGI in the assay with UACC-257 melanoma was 7.78 µM; with RXF 393 renal, 18 µM; in the assay on RPMI-8226 leukemia, 31.6 µM; in the assay with LOX IMVI melanoma, 29.2 µM.
`COc1cc(NC(=O)c2ccccc2Nc2ccnc(C(F)(F)F)c2)cc(OC)c1OC`: the GI50 was 73.3 µM with M14 melanoma; more than 100 µM in the assay with SK-MEL-28 melanoma; more than 100 µM in the assay on SW-620 colon; more than 100 µM with SF-539 CNS; 41.9 µM in the assay with COLO 205 colon; more than 100 µM with MDA-MB-231 breast. Moreover, the GI50 in the assay on UACC-257 melanoma was 88.2 µM; in the assay with RXF 393 renal it was more than 100 µM; with RPMI-8226 leukemia, 36.3 µM; in the assay with LOX IMVI melanoma, 75.6 µM. For the same compound, the TGI in the assay with M14 melanoma, in the assay with SK-MEL-28 melanoma, with SW-620 colon, in the assay with SF-539 CNS, in the assay with COLO 205 colon and in the assay with MDA-MB-231 breast was more than 100 µM each time. Moreover, the TGI in the assay with UACC-257 melanoma, in the assay on RXF 393 renal, in the assay with RPMI-8226 leukemia and in the assay on LOX IMVI melanoma was more than 100 µM throughout.
`Cc1cc(N)cc(C)c1-c1c(Br)cc(N)cc1Br`: the GI50 in the assay with M14 melanoma is 2.65 µM; in the assay with SK-MEL-28 melanoma, 5.21 µM; in the assay with SW-620 colon, 3.68 µM; with SF-539 CNS it was 2.89 µM; in the assay with COLO 205 colon, 2.39 µM; in the assay with MDA-MB-231 breast it was 4.1 µM. The GI50 is 14.3 µM in the assay on UACC-257 melanoma, 2.57 µM in the assay on RXF 393 renal, 3.04 µM in the assay with RPMI-8226 leukemia and 6.14 µM in the assay on LOX IMVI melanoma. Also, the TGI is 8.76 µM in the assay on M14 melanoma; 33.7 µM with SK-MEL-28 melanoma; more than 100 µM in the assay on SW-620 colon; 11.1 µM in the assay with SF-539 CNS; 4.88 µM in the assay on COLO 205 colon; 26.3 µM in the assay with MDA-MB-231 breast. Further, the TGI came to 51.8 µM in the assay with UACC-257 melanoma, 6.91 µM in the assay on RXF 393 renal, 10.4 µM in the assay on RPMI-8226 leukemia and 20.7 µM in the assay on LOX IMVI melanoma.
On to `N#Cc1c(N)c(C#N)c2c(c1-c1ccc(Cl)cc1)COc1ccc(F)cc1-2`, for which the GI50 with M14 melanoma is 16.7 µM; in the assay with SK-MEL-28 melanoma, more than 50 µM; with SW-620 colon, 22.5 µM; in the assay with SF-539 CNS, 28.2 µM; in the assay on COLO 205 colon, more than 50 µM; with MDA-MB-231 breast, 7.71 µM. For the same compound, the GI50 in the assay with UACC-257 melanoma was more than 50 µM; in the assay with RXF 393 renal it was more than 50 µM; in the assay with RPMI-8226 leukemia, 19 µM; in the assay with LOX IMVI melanoma it was 43.9 µM. For the same compound, the TGI in the assay with M14 melanoma is more than 50 µM; in the assay with SK-MEL-28 melanoma it was more than 50 µM; with SW-620 colon, more than 50 µM; with SF-539 CNS, more than 50 µM; in the assay on COLO 205 colon, more than 50 µM; with MDA-MB-231 breast it was 45.7 µM. Also, the TGI with UACC-257 melanoma, in the assay with RXF 393 renal, in the assay with RPMI-8226 leukemia and in the assay with LOX IMVI melanoma was more than 50 µM in each case.
On to `C[C@H](c1ccccc1)N(CCC(=O)O)C(=O)CCN(C(=O)CCN(C(=O)CCN[C@H](C)c1ccccc1)[C@H](C)c1ccccc1)[C@H](C)c1ccccc1`, for which the GI50 in the assay with M14 melanoma, with SK-MEL-28 melanoma, in the assay with SW-620 colon, with SF-539 CNS, in the assay with COLO 205 colon and in the assay on MDA-MB-231 breast was more than 100 µM in each case. Further, the GI50 was more than 100 µM with UACC-257 melanoma, more than 100 µM in the assay with RXF 393 renal, 58.4 µM in the assay on RPMI-8226 leukemia and more than 100 µM with LOX IMVI melanoma. For the same compound, the TGI with M14 melanoma, in the assay on SK-MEL-28 melanoma, in the assay on SW-620 colon, in the assay on SF-539 CNS, in the assay with COLO 205 colon and in the assay on MDA-MB-231 breast was more than 100 µM each time. Further, the TGI in the assay on UACC-257 melanoma, in the assay with RXF 393 renal, with RPMI-8226 leukemia and with LOX IMVI melanoma was more than 100 µM in each case.
`O=c1c2cc(O)c(O)cc2oc2cc(O)c(C3OC(CO)C(O)C(O)C3O)c(O)c12` (stereo not given): the TGI in the assay on M14 melanoma, with SK-MEL-28 melanoma, in the assay on SW-620 colon, in the assay with SF-539 CNS, in the assay on COLO 205 colon and in the assay with MDA-MB-231 breast was more than 100 µM in each case. Besides, the TGI with UACC-257 melanoma, in the assay on RXF 393 renal, with RPMI-8226 leukemia and in the assay on LOX IMVI melanoma was more than 100 µM each time.

(Values after PubChem BioAssay (NCI).)
